Earlier results, collected in patent US6524619B2, “Dosage forms useful for modifying conditions and functions associated with hearing loss and/or tinnitus” (Chronorx, Inc., priority 2000, dated 2003).
Read-outs that look alike come from different tables or passages of the source.

How the values were obtained:
senile deafness = conditions: 1 microgram/day for 6 to 10 months, 12 patients suspected of abnormal bone metabolism
tinnitus and SNHL = conditions: marginally Zn^2+ deficient elderly adults
NMDA receptor = conditions: rat, iontophoresis
[1] = not given; remark: listed apart in the source
[2] = test system: hydrogen peroxide-induced platelet aggregation
[3] = test system: noise-induced permanent hearing threshold shifts (NIPTS); conditions: 167 mg elemental Mg^2+ daily, 2 months, 300 recruits
[4] = in vivo
[5] = not given; remark: listed apart in the source
[6] = not given; remark: listed apart in the source
[7] = 100 mg oral
red cell membrane = conditions: 300 mg tid after meals for 3 months
GSHPx [8] = conditions: following supplementation
[9] = rats, oral (C14) LA
[10] = test system: bovine aortic endothelial cells (BAECs); conditions: LA added before AGE exposure
[11] = humans, 200 mg oral dose
RBC GSH system = conditions: selenium treatment
peritoneal macrophages = conditions: mice
[12] = 80 mg orally
GSHPx [13] = conditions: within 30 minutes, exogenously administered
[14] = test system: outer cochlear hair cells; conditions: rat, postmortem
[15] = 3 mg ingested, within 20 min
[16] = test system: blood viscosity and red cell membrane lipid peroxidation; conditions: 300 mg tid 3 months, Type 2 diabetes mellitus
[17] = one small study
[18] = levels up to 1 mg per day

C=C1/C(=C\C=C2/CCC[C@]3(C)[C@@H]([C@H](C)CCCC(C)C)CC[C@@H]23)C[C@@H](O)C[C@@H]1O [1 alpha-(OH)D3]
hearing improvement (senile deafness): hearing improvement in six ears (four patients)

[Zn+2] [Zn^2+, Zinc]
reduction of tinnitus and SNHL (tinnitus and SNHL): about one-third
increase of mean plasma Zn^+2 above pre-load levels (11-fold increase in intake): 37%
ingested Zn^+2 entering the plasma (in vivo): About 37%
time by which gastrointestinal absorption is essentially completed (in vivo): ≤ 4 h
excitatory response of the cortical striatum (NMDA receptor): potent attenuation

CC(C)(C)[C@]1(O)CC2OC(=O)CC23C(=O)OC2OC(=O)[C@H](O)C231 (some centres unmarked) [Bilobalide]
bioavailability coefficient (FAUC), mean ([1]; given orally during fasting): 0.79(+/−0.3)

O=C(O)c1cccnc1 [Nicotinic acid, reference compound]
inhibitory effect upon hydrogen peroxide-induced platelet aggregation [2]: no inhibitory effect

[Mg+2] [Mg^2+, Magnesium]
NIPTS frequency and severity [3]: significantly more frequent and more severe in the placebo group
maximum intestinal bulk absorption [4]: 8 mEq per meal
excitatory response of the cortical striatum (NMDA receptor): potent attenuation

NC(=O)c1cccnc1 [standard nicotinamide, nicotinamide]
increase in the AUC ([5]; 10-fold increase in the dose): 62 fold
AUC relative to Enduramide ([5]; higher doses): 1.7 times

COC1=C(OC)C(=O)C(C/C=C(\C)CC/C=C(\C)CC/C=C(\C)CC/C=C(\C)CC/C=C(\C)CC/C=C(\C)CC/C=C(\C)CC/C=C(\C)CC/C=C(\C)CCC=C(C)C)=C(C)C1=O [CoQ10, Coenzyme Q10]
increase of CoQ10 in plasma ([6]; granular preparations): 168%
elevation of CoQ10 in plasma ([6]; supplemental oil-based capsules): 178%

d5-CoQ10
time of second plasma peak after dosing ([7]; most of the subjects): 24 h
mean plasma CoQ10 level peak ([7]; sixteen healthy male subjects): 1.004+/−0.37 micrograms/ml

Cc1c(C)c2c(c(C)c1O)CC[C@@](C)(CCC[C@H](C)CCC[C@H](C)CCCC(C)C)O2 [alpha-tocopherol, D, alpha-tocopherol]
reduction of lipid peroxidation stress in red cell membrane (MDA) (red cell membrane): 0.17 ± 0.13 nmol
GSHPx activities (GSHPx [8]): increase as much as twofold

O=C(O)CCCCC1CCSS1 (centres unmarked) [LA, 1,2-dithiolane-3-pentanoic acid]
plasma concentration-time curve area (FAUC) relative to intravenous administration [9]: 66%
depletion of GSH and ascorbic acid [10]: completely prevents depletion of GSH and ascorbic acid
absolute bioavailability [11]: 29.1+/−10.3%

[Se] [Selenium]
elevation of RBC GSHPx (RBC GSH system): 64%
reduction in the RBC oxidized GSH content (RBC GSH system): 39%
increase in GSH content (RBC GSH system; RBC): 11%
increase in glutathione reductase activities (RBC GSH system; RBC): 57%
increase in GSH content in peritoneal macrophages (peritoneal macrophages): 36%
increase in GSHPx activity in peritoneal macrophages (peritoneal macrophages): 30%
reduction in cell-mediated oxidation of LDL and aortic atherosclerotic lesions (peritoneal macrophages): 46%

C[C@@H]1C(=O)O[C@H]2C[C@@]34[C@H]5C[C@@H](C(C)(C)C)[C@]36[C@@H](OC(=O)[C@@H]6O)O[C@@]4(C(=O)O5)[C@]21O [Ginkgolide A]
bioavailability coefficient (FAUC), mean ([1]; given orally during fasting): 0.80 (+/−0.09)

COc1ccc2[nH]cc(CCNC(C)=O)c2c1 [Melatonin, N-acetyl-5-methoxytryptamine]
absorption constant (ka) [12]: 1.72 h⁻¹
elimination constant (kel) [12]: 0.87 h⁻¹
time of peak serum melatonin after administration [12]: 60 to 150 min
time peak serum melatonin remains stable [12]: approximately 1.5 hours
rise in GSHPx activity in the brain (GSHPx [13]): 2 fold
prolongation of hair cell activity after death compared to untreated animals [14]: up to 7 times
serum melatonin [15]: 3561 ± 1201 pg/mL
excitatory response of the cortical striatum (NMDA receptor): potent attenuation

Cc1c(C)c2c(c(C)c1OC(=O)c1cccnc1)CC[C@@](C)(CCC[C@H](C)CCC[C@H](C)CCCC(C)C)O2 [Alpha-tocopherol nicotinate, alpha tocopherol nicotinate]
reduction of malondialdehyde (MDA) in red cell membrane [16]: 0.17 ± 0.13 nmol/L
reduction of blood viscosity ([16]; gamma=1.5 s(−1)): −2.23 +/−2.82
inhibitory effect upon hydrogen peroxide-induced platelet aggregation [2]: greater than that of either vitamin E alone or the simultaneous use of vitamin E and nicotinic acid

CC1C(=O)OC2C(O)C34C5CC(C(C)(C)C)C36C(OC(=O)C6O)OC4(C(=O)O5)C12O (centres unmarked) [Ginkgolide B]
bioavailability coefficient (FAUC), mean ([1]; in vivo, po): 0.88(+/−0.21)

[Cr] [Cr, Chromium]
average apparent net absorption of Cr [17]: 1.8%
signs of toxicity [18]: no documented signs of toxicity
